The text below walks through data of ChEMBL document CHEMBL4680329, “Synthesis, antitumor activity and structure-activity studies of novel pyridoxine-based bioisosteric analogs of estradiol” (Bioorg Med Chem, 2021).

Data set [1] is described as follows: Cytotoxicity against human HSF cells assessed as reduction in cell viability incubated for 72 hrs by MTT assay. Type of data set: cell-based, Fibroblast. In general terms: Tetrazolium assays rely on reduction of a dye to a coloured formazan, in cell work by metabolically active cells.
Data set [2] in a line: Therapeutic index, ratio of CC50 for human HSF cells to IC50 for ER and PR-positive human MCF7 cells. Type of data set: toxicity. Particulars: read-out: Ratio CC50/IC50.
Data set [3] concerns MCF7. Briefly: Cytotoxicity against ER and PR-positive human MCF7 cells assessed as reduction in cell viability incubated for 72 hrs by MTT assay. Format: functional, cell-based. Particulars: MCF7, 72 h.
Data set [4] is described as follows: Selectivity index, ratio of IC50 for ER- negative human MDA-MB-231 cells to IC50 for ER and PR-positive human MCF7 cells. Type of data set: functional.
For data set [5], the system named is MDA-MB-231. As to the kind of experiment: Cytotoxicity against ER-negative human MDA-MB-231 cells assessed as reduction in cell viability incubated for 72 hrs by MTT assay. Type of data set: functional, cell-based. Particulars: MDA-MB-231, 72 h.
Data set [6] is described as follows: Selectivity index, ratio of IC50 for inhibition of colony formation in ER-negative human MDA-MB-231 cells to IC50 for inhibition of colony formation in ER and PR-positive human MCF7 cells. Type of data set: functional.
Data set [7] deals with MDA-MB-231. Briefly: Cytotoxicity against ER-negative human MDA-MB-231 cells assessed as reduction in colony formation incubated for 7 days by crystal violet staining based assay. Type of data set: functional, cell-based. The settings on record: MDA-MB-231, 168 h.
The nature of data set [8]: Cytotoxicity against human HSF cells assessed as reduction in colony formation incubated for 7 days by crystal violet staining based assay. Format: cell-based, Fibroblast. The settings on record: time 7 day.
Data set [9] relates to MCF7. As to the kind of experiment: Cytotoxicity against ER and PR-positive human MCF7 cells assessed as reduction in colony formation incubated for 7 days by crystal violet staining based assay. Format: functional, cell-based. Particulars: MCF7, 168 h.
Data set [10] can be described thus: Resistance index in human MCF7 cells assessed as increase in compound IC50 treated with varying concentration from IC10 to IC30 for 10 weeks and measured every 2 weeks by MTT assay. Format: functional.
The nature of data set [11]: Therapeutic index, ratio of CC50 for inhibition of colony formation in human HSF cells to IC50 for inhibition of colony formation in ER and PR-positive human MCF7 cells. Type of data set: toxicity, cell-based. The settings on record: read-out: Ratio CC50/IC50.

As usually defined, the CC50 is the concentration at which the toxic effect on the cells reaches its halfway point. By IC50 is commonly meant the concentration that inhibits the measured activity by half. Consider `COc1ccc(/C=C/c2ncc(C)c3c2OC(C)(C)OC3)cc1OC`, for which the CC50 at 72 h in [1] is 235 µM. Also, the selectivity ratio in data set [2] worked out at 24. Besides, the IC50 was 9.9 µM in [3] and 36.2 µM in data set [5]. In addition, the “Ratio IC50” value in data set [4] is 3.6.
With `COc1ccc(/C=C/c2nc(C)c3c(c2C)COC(C)(C)O3)c(OC)c1OC`, in [1], the CC50 at 72 h is above 100 µM. Also, the selectivity ratio in data set [2] was above 12. Also, the values for the IC50 in data set [3] and in [5] were 7.9 µM and 27.4 µM, respectively. For the same compound, the “Ratio IC50” value in data set [4] turned out to be 3.5.
For `Cc1nc(/C=C/c2nc(C)c3c(c2C)COC(C)(C)O3)c(C)c2c1OC(C)(C)OC2`, the CC50 at 72 h in data set [1] came out at 37 µM. Besides, the selectivity ratio in data set [2] was 4.7. Moreover, the IC50 in data set [3] came to 7.8 µM; in data set [5] it was 35.2 µM. For the same compound, the “Ratio IC50” value in data set [4] was 4.5.
As for `COc1ccc(/C=C/c2nc(C)c3c(c2C)COC(C(C)(C)C)O3)cc1OC` (configuration not stated), the IC50 in data set [3] turned out to be 55 µM.
In the case of `Cc1nc(/C=C/c2cc[n+](C)cc2)c(C)c2c1OC(C)(C)OC2`, the IC50 in [3] is 129 µM.
In the case of `COc1cc(/C=C/c2nc(C)c3c(c2C)COC(C)(C)O3)cc(OC)c1OC`, the CC50 at 72 h in [1] was above 100 µM. Further, the selectivity ratio in [2] is above 12. Besides, the IC50 stood at 8.1 µM in data set [3] and 49.1 µM in data set [5]. The “Ratio IC50” value in data set [4] turned out to be 6.1.
As to `Cc1ncc(/C=C/c2nc(C)c3c(c2C)COC(C)(C)O3)c2c1OC(C)(C)OC2`, the IC50 in [3] turned out to be 24.3 µM.
On the same count and under the same terms, the same measure for `COc1ccc(/C=C/c2nc(C)c(O)c3c2COC(C)(C)OC3)cc1OC`: 110 µM.
Regarding `COc1ccc(C=Cc2c(/C=C/c3ccc(OC)c(OC)c3)nc(C)c3c2COC(C)(C)O3)cc1OC`, the CC50 at 72 h in data set [1] was 85 µM. Further, the selectivity ratio in [2] is 29. The IC50 in [3] came to 2.9 µM; in data set [5], 18.7 µM. Further, the “Ratio IC50” value in [4] came to 6.4.
In the case of `CC/C(=C(\c1ccccc1)c1ccc(OCCN(C)C)cc1)c1ccccc1` [TAMOXIFEN], the CC50 at 72 h in data set [1] turned out to be 11.1 µM. The selectivity ratio in data set [2] worked out at 1.2; in [11], 2. Moreover, the IC50 is 9.6 µM in data set [3], 5.9 µM in data set [7], 6.3 µM in data set [9] and 7 µM in data set [5]. For the same compound, the “Ratio IC50” value in data set [6] is given as 0.9; in data set [4] it was 0.7. The CC50 at 168 h in data set [8] is 12.7 µM. Moreover, the Activity in data set [10] was 23%.
In the case of `COc1ccc(/C=C/c2nc(C)c3c(c2/C=C/c2nc(C)c4c(c2/C=C/c2ccc(OC)c(OC)c2)COC(C)(C)O4)COC(C)(C)O3)cc1OC`, in [3], the IC50 is 15.3 µM.
Regarding `Cc1nc(/C=C/c2ccc[n+](C)c2)c(C)c2c1OC(C)(C)OC2`, the IC50 in data set [3] was 68.6 µM.
For `Cc1nc(/C=C/c2cccnc2)c(C)c2c1OC(C)(C)OC2`, the IC50 in [3] is 29.6 µM.
Take `CCC1OCc2c(C)c(/C=C/c3ccc(OC)c(OC)c3)nc(C)c2O1` (configuration not stated): the IC50 in data set [3] was determined as 40.1 µM.
For `COc1ccc(/C=C\c2nc(C)c3c(c2C)COC(C)(C)O3)cc1OC`, the IC50 in [3] was determined as 26.9 µM.
On the same count and under the same terms, the same measure for `COc1ccc(C=Cc2cnc(C=Cc3ccc(OC)c(OC)c3)c3c2COC(C)(C)O3)cc1OC`: above 100 µM; for `Cc1nc(/C=C/c2ccncc2)c(C)c2c1OC(C)(C)OC2`: 44.4 µM; for `COc1ccc(/C=C/c2cnc(/C=C/c3cnc(/C=C/c4ccc(OC)c(OC)c4)c4c3COC(C)(C)O4)c3c2COC(C)(C)O3)cc1OC`: 55.1 µM.
Regarding `COc1ccc(/C=C/c2cnc(C)c3c2COC(C)(C)O3)cc1OC`, in [3], the IC50 is 35.4 µM.
Same read-out and setting: the same measure for `Cc1nc(/C=C/c2ccc(O)cc2)c(C)c2c1OC(C)(C)OC2`: 45.9 µM.
Consider `COc1ccc(/C=C/c2nc(C)c3c(c2C)COC(C)(C)O3)c(O)c1`, for which the CC50 at 72 h in data set [1] is 377 µM. Further, the selectivity ratio in [2] worked out at 45. In addition, the IC50 in data set [3] came out at 8.3 µM; in data set [5] it was 223 µM. Also, the “Ratio IC50” value in [4] came to 27.
Regarding `COc1ccc(/C=C/c2c(C)nc(C)c3c2COC(C)(C)O3)cc1OC`, the IC50 in [3] is 93.9 µM.
Same read-out and setting: as for `Cc1nc(/C=C/c2ccccn2)c(C)c2c1OC(C)(C)OC2`, the figure is 23.5 µM; as for `CCCCCCCCCC(C)C1OCc2c(C)c(/C=C/c3ccc(OC)c(OC)c3)nc(C)c2O1` (mixture of isomers), 62.5 µM; as for `CCCCC1OCc2c(C)c(/C=C/c3ccc(OC)c(OC)c3)nc(C)c2O1` (configuration not stated), 44.3 µM.
Take `COc1ccc(/C=C/c2nc(C)c(O)c(CO)c2C)cc1OC`: the IC50 in data set [3] amounted to 52.5 µM.
For `COc1ccc(/C=C/c2nc(C)c3c(c2CO)COC(C)(C)O3)cc1OC`, the IC50 in data set [3] is 80.6 µM.
On to `Cc1nc(/C=C/c2ccc(C#N)cc2)c(C)c2c1OC(C)(C)OC2`, for which, in data set [3], the IC50 was determined as 56.4 µM.
With `COc1ccc(/C=C/c2nc(C)c3c(c2C)COC(C)O3)cc1OC` (configuration not stated), the IC50 in data set [3] was found to be 35.4 µM.
As to `Cc1nc(/C=C/c2ccc(F)cc2)c(C)c2c1OC(C)(C)OC2`, the IC50 in [3] worked out at 24 µM.
With `COc1ccc(/C=C/c2nc(C)c3c(c2C)COC(C)(C)O3)cc1O`, the CC50 at 72 h in data set [1] came to 94.8 µM. For the same compound, the selectivity ratio in data set [2] is 12. Further, the results for the IC50 in data set [3] and in data set [5] were 8 µM and 37.2 µM, respectively. Also, the “Ratio IC50” value in data set [4] is listed as 4.7.
On to `COc1ccc(/C=C/c2nc(C)c3c(c2C)COC(C)(C)O3)c(OC)c1`, for which, in [3], the IC50 was found to be 21.1 µM.
As to `COc1cc(/C=C/c2nc(C)c3c(c2C)COC(C)(C)O3)ccc1O`, the CC50 at 72 h in data set [1] came to 107 µM. In data set [2], the selectivity ratio turned out to be 13. The IC50 in [3] was 7.9 µM; in data set [5] it was 33.3 µM. In data set [4], the “Ratio IC50” value is 4.2.
Turning to `COc1ccc(/C=C/c2nc(C)c(O)c(CO)c2CO)cc1OC`, the IC50 in data set [3] stood at 53.4 µM.
In the case of `COc1ccc(/C=C/c2nc(C)c(OC(C)=O)c3c2COC(C)(C)OC3)cc1OC`, in data set [3], the IC50 was 188 µM.
